Source: PubChem BioAssay AID248 (DTP/NCI, 2004)
Where “and” joins values, the source holds several entries; their conditions need not be identical. Identical values can stand only once. Toxic doses and inconclusive results are not listed. Cut-off read from the data, not from the text of the source: active = T/C of 150% or more; inactive = T/C below 125%. Square brackets hold non-standard residues; d marks the D form. Peptide text beside a SMILES is read from it. * marks the point of attachment. ξ: configuration not given here. ξF = NC(Cc1ccccc1)C(=O)O; Cbz = O=C(OCc1ccccc1)*

Test system: L1210 leukemia ip in BDF1 mice, survival T/C
Experiment: NCI In Vivo Anticancer Drug Screen. Data for tumor model L1210 Leukemia (intraperitoneal) in B6D2F1 (BDF1) mice
Conditions: endpoint: mean survival time, higher = longer survival
How it was run: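 Read-out is survival time, reported as the treated-group measurement over the vehicle-control measurement.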

[1] = dose: 100.0 mg/kg/injection, schedule: Q01DX001 (ip), vehicle: carboxymethylcellulose (CMC)
[2] = dose: 200.0 mg/kg/injection, schedule: Q01DX001 (ip), vehicle: carboxymethylcellulose (CMC)
[3] = dose: 400.0 mg/kg/injection, schedule: Q01DX001 (ip), vehicle: carboxymethylcellulose (CMC)
[4] = dose: 100.0 mg/kg/injection, schedule: Q01DX001 (ip), vehicle: saline
[5] = dose: 200.0 mg/kg/injection, schedule: Q01DX001 (ip), vehicle: saline

Measured: T/C

C=CCN(CC=C)C(=S)[S-].C=CCN(CC=C)C(=S)[S-].[Zn]
inactive: dose: 1.25 mg/kg/injection, schedule: Q01DX009 (ip), vehicle: saline 101 % of control | dose: 2.5 mg/kg/injection, schedule: Q01DX009 (ip), vehicle: saline 93 % of control | dose: 5.0 mg/kg/injection, schedule: Q01DX009 (ip), vehicle: saline 87 % of control | dose: 5.0 mg/kg/injection, schedule: Q04DX003 (ip), vehicle: saline 90 % of control | dose: 10.0 mg/kg/injection, schedule: Q01DX001 (ip), vehicle: saline 86 % of control | dose: 10.0 mg/kg/injection, schedule: Q04DX003 (ip), vehicle: saline 92 % of control | dose: 20.0 mg/kg/injection, schedule: Q01DX001 (ip), vehicle: saline 95 % of control

O=C(O)c1c(O)cc(=O)oc1-c1ccc(Cl)cc1
inactive: [1] 87 % of control | [2] 92 % of control | [3] 100 % of control

Nc1ccc2c(c1)C1(NC(=O)NC1=O)c1cc(N)ccc1-2
inactive: dose: 50.0 mg/kg/injection, schedule: Q01DX001 (ip), vehicle: carboxymethylcellulose (CMC) 101 % of control | [1] 101 % of control | [2] 109 % of control | [3] 103 % of control

COc1ccc(/C(C#N)=C/c2ccc(N(C)CCC#N)cc2)cc1
inactive: dose: 12.5 mg/kg/injection, schedule: Q01DX009 (ip), vehicle: Klucel (hydroxypropylcellulose) (HPC) 103 % of control | dose: 25.0 mg/kg/injection, schedule: Q01DX009 (ip), vehicle: Klucel (hydroxypropylcellulose) (HPC) 100 % of control

O=[N+]([O-])c1cc(S(=O)(=O)C(F)F)ccc1Cl
inactive: dose: 25.0 mg/kg/injection, schedule: Q04DX003 (ip), vehicle: gum acacia 97 % of control | dose: 50.0 mg/kg/injection, schedule: Q01DX009 (ip), vehicle: gum acacia 93 % of control | dose: 50.0 mg/kg/injection, schedule: Q04DX003 (ip), vehicle: gum acacia 97 % of control | dose: 100.0 mg/kg/injection, schedule: Q01DX009 (ip), vehicle: gum acacia 88 % of control | dose: 100.0 mg/kg/injection, schedule: Q04DX003 (ip), vehicle: gum acacia 99 % of control and 102 % of control

Cc1c(Cl)c(C)c(Cl)c(CCl)c1Cl
inactive: dose: 100.0 mg/kg/injection, schedule: Q01DX009 (ip), vehicle: saline sonified 100 % of control | dose: 100.0 mg/kg/injection, schedule: Q04DX003 (ip), vehicle: Klucel (hydroxypropylcellulose) (HPC) 97 % of control | dose: 200.0 mg/kg/injection, schedule: Q01DX009 (ip), vehicle: saline sonified 95 % of control | dose: 200.0 mg/kg/injection, schedule: Q04DX003 (ip), vehicle: Klucel (hydroxypropylcellulose) (HPC) 89 % of control | dose: 400.0 mg/kg/injection, schedule: Q01DX009 (ip), vehicle: saline sonified 91 % of control | dose: 400.0 mg/kg/injection, schedule: Q04DX003 (ip), vehicle: Klucel (hydroxypropylcellulose) (HPC) 92 % of control

O=C(Nc1ccccc1)OCC(OC(=O)Nc1ccccc1)C(COC(=O)Nc1ccccc1)OC(=O)Nc1ccccc1 (stereo not given)
inactive: dose: 25.0 mg/kg/injection, schedule: Q04DX002 (ip), vehicle: saline with Tween-80 100 % of control | dose: 50.0 mg/kg/injection, schedule: Q04DX002 (ip), vehicle: saline with Tween-80 100 % of control | dose: 100.0 mg/kg/injection, schedule: Q04DX002 (ip), vehicle: saline with Tween-80 92 % of control | dose: 400.0 mg/kg/injection, schedule: Q04DX002 (ip), vehicle: saline with Tween-80 88 % of control

C=CCNC(=O)c1cncc(C(=O)O)c1
inactive: [4] 96 % of control | [5] 104 % of control | dose: 400.0 mg/kg/injection, schedule: Q01DX001 (ip), vehicle: saline 98 % of control

CCCCOC(=O)c1[nH]cnc1N
inactive: [4] 114 % of control | [5] 110 % of control

Cc1cc(C)c(CSC(=N)N)c(C)c1
inactive: dose: 25.0 mg/kg/injection, schedule: Q04DX002 (ip), vehicle: Klucel (hydroxypropylcellulose) (HPC) 88 % of control | dose: 50.0 mg/kg/injection, schedule: Q04DX002 (ip), vehicle: Klucel (hydroxypropylcellulose) (HPC) 92 % of control | dose: 100.0 mg/kg/injection, schedule: Q04DX002 (ip), vehicle: Klucel (hydroxypropylcellulose) (HPC) 100 % of control and 89 % of control

FCCCC1CCCCN1 (stereo not given)
inactive: dose: 12.5 mg/kg/injection, schedule: Q01DX009 (ip), vehicle: saline 98 % of control | dose: 25.0 mg/kg/injection, schedule: Q01DX009 (ip), vehicle: saline 102 % of control | dose: 50.0 mg/kg/injection, schedule: Q01DX009 (ip), vehicle: saline 96 % of control and 109 % of control

COC(=O)C(Cc1ccccc1)NC(=O)CNC(=O)CNC(=O)OCc1ccccc1 (stereo not drawn) (Cbz-Gly-Gly-[ξF]-OMe)
inactive: dose: 100.0 mg/kg/injection, schedule: Q04DX003 (ip), vehicle: other 98 % of control | dose: 200.0 mg/kg/injection, schedule: Q04DX003 (ip), vehicle: other 97 % of control | dose: 400.0 mg/kg/injection, schedule: Q04DX003 (ip), vehicle: other 106 % of control

C[CH2][Pb]([CH2]C)([CH2]C)[O]C(=O)C=C1CCCC1
inactive: dose: 2.5 mg/kg/injection, schedule: Q01DX009 (ip), vehicle: saline with Tween-80 101 % of control

CCCCN(C)/N=N/c1[nH]ncc1C(=O)OCC
inactive: dose: 52.0 mg/kg/injection, schedule: Q01DX009 (ip), vehicle: other 119 % of control | dose: 78.0 mg/kg/injection, schedule: Q01DX009 (ip), vehicle: other 119 % of control
active: dose: 266.0 mg/kg/injection, schedule: Q01DX007 (ip), vehicle: saline 154 % of control | dose: 266.0 mg/kg/injection, schedule: Q01DX009 (ip), vehicle: other 168 % of control | dose: 400.0 mg/kg/injection, schedule: Q01DX007 (ip), vehicle: saline 174 % of control

CCN=C(N)c1ccc(NC(=O)Nc2ccc(NC(=O)Nc3ccc(C(N)=NCC)cc3)cc2)cc1
inactive: dose: 0.31 mg/kg/injection, schedule: Q01DX Z (ip), vehicle: carboxymethylcellulose (CMC) 98 % of control | dose: 0.62 mg/kg/injection, schedule: Q01DX Z (ip), vehicle: carboxymethylcellulose (CMC) 97 % of control | dose: 1.25 mg/kg/injection, schedule: Q01DX Z (ip), vehicle: carboxymethylcellulose (CMC) 90 % of control | dose: 2.5 mg/kg/injection, schedule: Q01DX Z (ip), vehicle: carboxymethylcellulose (CMC) 107 % of control

CN(C)C12CCCCC1S(=O)(=O)C2 (stereo not given)
inactive: dose: 10.0 mg/kg/injection, schedule: Q01DX009 (ip), vehicle: saline 88 % of control | dose: 20.0 mg/kg/injection, schedule: Q01DX009 (ip), vehicle: saline 98 % of control

Cc1c2ccc3ccccc3c2cc2cccc(Cl)c12
inactive: dose: 100.0 mg/kg/injection, schedule: Q01DX001 (ip), vehicle: Klucel (hydroxypropylcellulose) (HPC) 97 % of control | dose: 200.0 mg/kg/injection, schedule: Q01DX001 (ip), vehicle: Klucel (hydroxypropylcellulose) (HPC) 98 % of control | dose: 400.0 mg/kg/injection, schedule: Q01DX001 (ip), vehicle: Klucel (hydroxypropylcellulose) (HPC) 101 % of control
